Test results from US20250051376A1, “BENZIMIDAZOLE DERIVATIVE COMPOUNDS AND USE THEREOF” (PHARMGEN SCIENCE, INC., priority 2021, published 2025).

Key:
gastric acid secretion [1] = assay: Gastric acid releasing suppression ability test by oral administration (pylorus-ligated, histamine-stimulated rats); type: in vivo
Description: A week before the test, test animals (rats) were purchased and acclimatized. After acclimatization, food was removed the day before the test and fasting was performed for 24 hours using a fasting plate. The weight of each individual was measured, weight ranking was sequentially assigned to each group, and the average value of each group was randomly distributed so that the average value was evenly distributed. Test material (the embodiment compound and comparison compound) were used by dissolving them in 0.5% methylcellulose solution, and tegoprazan was used as a comparative compound. The prepared test material was orally administered to test animals at an amount of 3 mg/5 ml/kg, and 30 minutes later, inhalation anesthesia (3% isoflurane) was performed for 3 minutes using an inhalation anesthesia machine. After making a minimal incision in the upper abdomen about 1 cm below the left side of the sternum of an anesthetized test animal, the stomach was exposed, and the pyloric ring, which is the connection between the stomach and the duodenum, was ligated. The stomach and duodenum were restored to their original positions, and the laparotomy site was sutured well with surgical staplers. Histamine (7.5 mg/2.5 mL/head) was slowly administered subcutaneously to the back of the neck to promote gastric acid secretion. 3 hours after the surgery, the experimental animals were anesthetized with isoflurane and the stomach was removed through laparotomy. Gastric fluid obtained from the extracted stomach was transferred to a 15 ml conical tube, centrifuged at 5,000 rpm for 10 minutes, and only the supernatant was separated. 0.2 mL of the separated gastric fluid was diluted in 24.8 mL of distilled water to make a total dilution of 25 mL, and then 0.01N NaOH was added in small amounts to titrate until the pH reached 7. Efficacy was evaluated by calculating total acidity by combining the amount of gastric fluid and the amount of 0.01N NaOH required for titration.

gastric acid secretion [2] = assay: Gastric acid releasing suppression ability test by administration in the duodenum (pylorus-ligated, histamine-stimulated rats); type: in vivo; conditions: for gastric acid releasing suppression ability (% INH, Mean ± SD): intraduodenal 1 mg/5 ml/kg in 0.5% methylcellulose, pylorus ligation, histamine s.c., gastric fluid collected 3 hours after surgery
Description: A week before the test, test animals (rats) were purchased and acclimatized. After acclimatization, food was removed the day before the test and fasting was performed for 24 hours using a fasting plate. The weight of each individual was measured, weight ranking was sequentially assigned to each group, and the average value of each group was randomly distributed so that the average value was evenly distributed. Test material (the embodiment compound and comparison compound) were used by dissolving them in 0.5% methylcellulose solution, and tegoprazan was used as a comparative compound. Experimental animals were subjected to inhalation anesthesia (3% isoflurane) for 3 minutes using an inhalation anesthesia machine. After making a minimal incision in the upper abdomen about 1 cm below the left side of the sternum of an anesthetized test animal, the stomach was exposed, and the pyloric ring, which is the connection between the stomach and the duodenum, was ligated. The prepared drug was administered into the duodenum in an amount of 1 mg/5 ml/kg, the stomach and duodenum were restored to their original positions, and the laparotomy site was sutured well with a surgical stapler. Histamine (7.5 mg/2.5 mL/head) was slowly administered subcutaneously to the back of the neck to promote gastric acid secretion. 3 hours after the surgery, the experimental animals were anesthetized with isoflurane and the stomach was removed through laparotomy. Gastric fluid obtained from the extracted stomach was transferred to a 15 ml conical tube, centrifuged at 5,000 rpm for 10 minutes, and only the supernatant was separated. 0.2 mL of the separated gastric fluid was diluted in 24.8 mL of distilled water to make a total dilution of 25 mL, and then 0.01N NaOH was added in small amounts to titrate until the pH reached 7. Efficacy was evaluated by calculating total acidity by combining the amount of gastric fluid and the amount of 0.01N NaOH required for titration.

physchem = conditions: pH 6.8, aqueous buffer, thermodynamic from solid
[3] = rats, oral 3 mg/5 ml/kg in 0.5% methylcellulose, pylorus ligation 30 min after dosing, histamine s.c., gastric fluid collected 3 hours after surgery

Compound	improved water solubility (pH 6.8) compared to the comparative compound	solubility at 31 min (physchem)	gastric acid releasing suppression ability (% INH, Mean ± SD) (gastric acid secretion [1]; [3])	gastric acid releasing suppression ability (% INH, Mean ± SD) (gastric acid secretion [2])	gastric acid releasing suppression ability in the gastric acid secretion animal model (in words) (gastric acid secretion [1]; rats, oral 3 mg/5 ml/kg)	gastric acid releasing suppression ability (% INH, Mean ± SD) (gastric acid secretion [1]; rat, in vivo)	gastric acid releasing suppression ability in the gastric acid secretion animal model (in words) (gastric acid secretion [1]; rat, in vivo, po)	ability to inhibit gastric acid secretion compared to the comparative compound (in words) (gastric acid secretion [2]; drug administered to the duodenum with a neutral pH, 1 mg/5 ml/kg)
Cc1nc2cc(C(=O)N(C)C)cc(O[C@H]3CCOc4cc(F)cc(F)c43)c2[nH]1 [Comparison compound, tegoprazan, reference compound]			100 ± 0.0 % INH	29.8 ± 9.1 % INH				
sodium(S)-(4-((5,7-difluorochroman-4-yl)oxy)-6-(dimethylcarbamoyl)-2-methyl-1H-benzo (d) imidazol-1-yl)methyl phosphate) [Embodiment 6]				43.7 ± 8.7 % INH		92.8 ± 4.8 % INH	powerful gastric acid releasing suppression ability	improved ability to inhibit gastric acid secretion compared to the comparative compound
sodium(S)-tert-butyl ((4-((5,7-difluorochroman-4-yl)oxy)-6-(dimethylcarbamoyl)-2-methyl-1H-benzo (d) imidazol-1-yl)methyl) phosphate) [Embodiment 5]						12.7 ± 10.9 % INH		

Second part, led by results:

improved water solubility (pH 6.8) compared to the comparative compound	solubility at 31 min (physchem)	Compound	gastric acid releasing suppression ability (% INH, Mean ± SD) (gastric acid secretion [1]; [3])	gastric acid releasing suppression ability (% INH, Mean ± SD) (gastric acid secretion [2])	gastric acid releasing suppression ability in the gastric acid secretion animal model (in words) (gastric acid secretion [1]; rats, oral 3 mg/5 ml/kg)	gastric acid releasing suppression ability (% INH, Mean ± SD) (gastric acid secretion [1]; rat, in vivo)	gastric acid releasing suppression ability in the gastric acid secretion animal model (in words) (gastric acid secretion [1]; rat, in vivo, po)	ability to inhibit gastric acid secretion compared to the comparative compound (in words) (gastric acid secretion [2]; drug administered to the duodenum with a neutral pH, 1 mg/5 ml/kg)
256 times	5120 µg/mL	Cc1nc2c(O[C@H]3CCOc4cc(F)cc(F)c43)cc(C(=O)N(C)C)cc2n1COP(=O)(OC(C)(C)C)OC(C)(C)C [Embodiment 2, (S)-di-tert-butyl ((4-((5,7-difluorochroman-4-yl)oxy)-6-(dimethylcarbamoyl)-2-methyl-1H-benzo[d]imidazol-1-yl)methyl) phosphate]	26.8 ± 9.2 % INH					
128 times	2560 µg/mL	Cc1nc2c(O[C@H]3CCOc4cc(F)cc(F)c43)cc(C(=O)N(C)C)cc2n1COP(=O)(O)OC(C)(C)C [Embodiment 3, tert-butyl ((4-(((S)-5,7-difluorochroman-4-yl)oxy)-6-(dimethylcarbamoyl)-2-methyl-1H-benzo (d)imidazol-1-yl)methyl) hydrogen phosphate]	23.9 ± 3.3 % INH					
128 times	2560 µg/mL	Cc1nc2c(O[C@H]3CCOc4cc(F)cc(F)c43)cc(C(=O)N(C)C)cc2n1COP(=O)(O)O [Embodiment 4, (S)-(4-((5,7-difluorochroman-4-yl)oxy)-6-(dimethylcarbamoyl)-2-methyl-1H-benzo[d]imidazol-1-yl)methyl dihydrogen phosphate]	100.0 ± 0.0 % INH		powerful gastric acid releasing suppression ability			
